Measured values reported in article PMC8881512 (Nature Communications, 2022).
“And” between values parts separate entries of the source, which are not always exact repeats. Equal values may be shown once.

Columns and labels:
[1] = target: T1, CAMKK1 (Homo sapiens, UniProt Q8N5S9); assay: Kinome profiling; assay type: biochemical; conditions: VT02956 (5 nM), read-out: % enzymatic activity relative to DMSO controls
T1 construct: LATS1/LATS2 enzymes from Signalchem

[2] = target: T2, PRKX (Homo sapiens, UniProt P51817); assay: Kinome profiling; assay type: biochemical; conditions: VT02956 (5 nM), read-out: % enzymatic activity relative to DMSO controls
T2 construct: LATS1/LATS2 enzymes from Signalchem

[3] = target: T3, STK38/NDR1 (Homo sapiens, UniProt Q15208); assay: Kinome profiling; assay type: biochemical; conditions: VT02956 (5 nM), read-out: % enzymatic activity relative to DMSO controls
T3 construct: LATS1/LATS2 enzymes from Signalchem

[4] = target: T4, EPHA3 (Homo sapiens, UniProt P29320); assay: Kinome profiling; assay type: biochemical; conditions: VT02956 (5 nM), read-out: % enzymatic activity relative to DMSO controls
T4 construct: LATS1/LATS2 enzymes from Signalchem

[5] = target: T5, TXK (Homo sapiens, UniProt P42681); assay: Kinome profiling; assay type: biochemical; conditions: VT02956 (5 nM), read-out: % enzymatic activity relative to DMSO controls
T5 construct: LATS1/LATS2 enzymes from Signalchem

[6] = target: T6, STK38L/NDR2 (Homo sapiens, UniProt Q9Y2H1); assay: Kinome profiling; assay type: biochemical; conditions: VT02956 (5 nM), read-out: % enzymatic activity relative to DMSO controls
T6 construct: LATS1/LATS2 enzymes from Signalchem

[7] = tested on: Phospho-YAP (Ser127) in HEK293A cells; assay: Cellular Phospho-YAP HTRF assay, HEK293A; assay type: cell-based; conditions: for YAP phosphorylation: 293A, Fig.5d
Description: Compound inhibition of […] YAP phosphorylation were performed based on commercial Phospho-YAP (Ser127) kit (Cisbio). In brief, HEK293A cells at 80%-100% confluence was rinsed with PBS, digested in 0.25% Trypsin-EDTA and centrifuged at 1000 × g for 3 min. The cell pellet was resuspended with appropriate volume of serum-free medium, counted using automated cell counter (Invitrogen), adjusted to a working density of 2.9 × 10^6/ml and dispensed into 384-well small volume white plate (Greiner) at 12 μl/well (3.5 × 10^4 cells) using Thermo Multidrop Combi microplate dispenser. At the time of detection, 36 nl DMSO contain 3-fold serial diluted compounds ranging from 10,000 to 4.6 nM were added into designed wells by Eco system and incubated at 37 °C for 120 min. Cell were lysed by adding 4 μl lysis buffer (4x), and incubated for 45 min at room temperature under shaking. HTRF reaction was performed by adding 4 μl of premixed phospho-YAP Cryptate antibody/Phospho-YAP d2 antibody solution prepared in the detection buffer and incubate at room temperature overnight. […] The compound inhibition was calculated by the formula, inhibition % = ([…]) × 100/ (HPE−ZPE). HPE represent 100% effect and ZPE is 0% effect. The data processing procedures were similar as in vitro LATS kinase inhibition assay.

[8] = target: T7, PKN1/PRK1 (Homo sapiens, UniProt Q16512); assay: Kinome profiling; assay type: biochemical; conditions: VT02956 (5 nM), read-out: % enzymatic activity relative to DMSO controls
T7 construct: LATS1/LATS2 enzymes from Signalchem

[9] = target: T8, CK2a2 (Homo sapiens, UniProt P19784); assay: Kinome profiling; assay type: biochemical; conditions: VT02956 (5 nM), read-out: % enzymatic activity relative to DMSO controls
T8 construct: LATS1/LATS2 enzymes from Signalchem

[10] = target: T9, WNK3 (Homo sapiens, UniProt Q9BYP7); assay: Kinome profiling; assay type: biochemical; conditions: VT02956 (5 nM), read-out: % enzymatic activity relative to DMSO controls
T9 construct: LATS1/LATS2 enzymes from Signalchem

[11] = target: T10, COT1/MAP3K8 (Homo sapiens, UniProt P41279); assay: Kinome profiling; assay type: biochemical; conditions: VT02956 (5 nM), read-out: % enzymatic activity relative to DMSO controls
T10 construct: LATS1/LATS2 enzymes from Signalchem

[12] = tested on: ERα, YAP/TAZ phosphorylation in MCF-7 cells; assay: Immunoblot analysis, MCF-7 cells; assay type: cell-based, human; conditions: MCF-7; 0.1, 0.5 and 2 μM for 2 days; Fig. 5f
[13] = target: T11, PKA (Homo sapiens, UniProt P17612); assay: Kinome profiling; assay type: biochemical; conditions: VT02956 (5 nM), read-out: % enzymatic activity relative to DMSO controls
T11 construct: LATS1/LATS2 enzymes from Signalchem

[14] = target: T12, BTK (Homo sapiens, UniProt Q06187); assay: Kinome profiling; assay type: biochemical; conditions: VT02956 (5 nM)
T12 construct: LATS1/LATS2 enzymes from Signalchem

[15] = target: T13, LATS1 (Homo sapiens, UniProt O95835); assay: Kinome profiling; assay type: biochemical; conditions: VT02956 (5 nM)
T13 construct: purchased Signalchem
T13 sequence (O95835 1-1130): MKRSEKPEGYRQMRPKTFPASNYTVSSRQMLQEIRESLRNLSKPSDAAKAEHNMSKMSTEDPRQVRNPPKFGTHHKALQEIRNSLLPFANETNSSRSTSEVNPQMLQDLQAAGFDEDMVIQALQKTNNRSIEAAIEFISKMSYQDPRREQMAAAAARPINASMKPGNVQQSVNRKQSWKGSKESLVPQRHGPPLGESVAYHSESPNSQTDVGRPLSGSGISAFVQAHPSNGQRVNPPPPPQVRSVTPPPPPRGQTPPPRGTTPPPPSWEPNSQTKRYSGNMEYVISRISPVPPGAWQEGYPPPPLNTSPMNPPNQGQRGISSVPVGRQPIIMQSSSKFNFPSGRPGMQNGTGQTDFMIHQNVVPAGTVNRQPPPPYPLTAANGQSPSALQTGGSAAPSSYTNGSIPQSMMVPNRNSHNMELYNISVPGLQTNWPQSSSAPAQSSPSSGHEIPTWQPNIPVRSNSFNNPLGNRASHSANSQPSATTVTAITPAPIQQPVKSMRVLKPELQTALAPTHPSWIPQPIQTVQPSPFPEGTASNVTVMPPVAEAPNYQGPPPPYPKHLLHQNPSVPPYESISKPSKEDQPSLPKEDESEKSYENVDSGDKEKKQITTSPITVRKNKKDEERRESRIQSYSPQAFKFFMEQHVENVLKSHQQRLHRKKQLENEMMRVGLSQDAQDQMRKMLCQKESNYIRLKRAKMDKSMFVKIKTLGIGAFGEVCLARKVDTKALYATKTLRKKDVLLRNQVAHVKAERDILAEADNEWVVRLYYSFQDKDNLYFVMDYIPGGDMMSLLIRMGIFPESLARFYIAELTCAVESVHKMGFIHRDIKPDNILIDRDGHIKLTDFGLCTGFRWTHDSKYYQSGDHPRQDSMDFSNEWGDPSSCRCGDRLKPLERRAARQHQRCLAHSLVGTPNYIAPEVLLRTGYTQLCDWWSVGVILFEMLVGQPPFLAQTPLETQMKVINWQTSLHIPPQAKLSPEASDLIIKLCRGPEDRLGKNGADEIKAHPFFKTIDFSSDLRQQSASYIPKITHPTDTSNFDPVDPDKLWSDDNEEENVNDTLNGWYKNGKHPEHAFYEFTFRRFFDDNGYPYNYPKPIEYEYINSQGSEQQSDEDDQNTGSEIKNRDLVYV

[16] = target: T14, SNRK (Homo sapiens, UniProt Q9NRH2); assay: Kinome profiling; assay type: biochemical; conditions: VT02956 (5 nM), read-out: % enzymatic activity relative to DMSO controls
T14 construct: LATS1/LATS2 enzymes from Signalchem
T14 sequence (Q9NRH2 whole entry): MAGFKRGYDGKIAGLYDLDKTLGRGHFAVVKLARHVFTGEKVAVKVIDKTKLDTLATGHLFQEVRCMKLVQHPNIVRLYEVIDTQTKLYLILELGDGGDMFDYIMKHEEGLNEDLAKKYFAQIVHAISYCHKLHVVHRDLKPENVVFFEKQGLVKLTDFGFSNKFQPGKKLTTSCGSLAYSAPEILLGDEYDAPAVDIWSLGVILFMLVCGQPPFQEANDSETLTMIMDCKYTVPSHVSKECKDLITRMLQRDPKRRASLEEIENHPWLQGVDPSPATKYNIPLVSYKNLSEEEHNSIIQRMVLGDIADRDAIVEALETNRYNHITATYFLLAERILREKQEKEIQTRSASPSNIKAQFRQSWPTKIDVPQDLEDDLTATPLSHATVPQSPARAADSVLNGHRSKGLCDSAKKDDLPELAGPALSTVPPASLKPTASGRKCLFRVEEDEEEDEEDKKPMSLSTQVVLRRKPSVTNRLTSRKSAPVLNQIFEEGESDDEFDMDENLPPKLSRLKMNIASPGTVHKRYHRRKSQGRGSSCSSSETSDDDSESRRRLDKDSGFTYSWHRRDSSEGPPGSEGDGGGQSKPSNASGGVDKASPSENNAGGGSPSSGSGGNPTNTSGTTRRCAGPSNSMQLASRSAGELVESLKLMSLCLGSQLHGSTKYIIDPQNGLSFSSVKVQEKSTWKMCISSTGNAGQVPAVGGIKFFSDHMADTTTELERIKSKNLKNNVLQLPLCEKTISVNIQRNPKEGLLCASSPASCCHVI

T9 sequence (Q9BYP7 whole entry): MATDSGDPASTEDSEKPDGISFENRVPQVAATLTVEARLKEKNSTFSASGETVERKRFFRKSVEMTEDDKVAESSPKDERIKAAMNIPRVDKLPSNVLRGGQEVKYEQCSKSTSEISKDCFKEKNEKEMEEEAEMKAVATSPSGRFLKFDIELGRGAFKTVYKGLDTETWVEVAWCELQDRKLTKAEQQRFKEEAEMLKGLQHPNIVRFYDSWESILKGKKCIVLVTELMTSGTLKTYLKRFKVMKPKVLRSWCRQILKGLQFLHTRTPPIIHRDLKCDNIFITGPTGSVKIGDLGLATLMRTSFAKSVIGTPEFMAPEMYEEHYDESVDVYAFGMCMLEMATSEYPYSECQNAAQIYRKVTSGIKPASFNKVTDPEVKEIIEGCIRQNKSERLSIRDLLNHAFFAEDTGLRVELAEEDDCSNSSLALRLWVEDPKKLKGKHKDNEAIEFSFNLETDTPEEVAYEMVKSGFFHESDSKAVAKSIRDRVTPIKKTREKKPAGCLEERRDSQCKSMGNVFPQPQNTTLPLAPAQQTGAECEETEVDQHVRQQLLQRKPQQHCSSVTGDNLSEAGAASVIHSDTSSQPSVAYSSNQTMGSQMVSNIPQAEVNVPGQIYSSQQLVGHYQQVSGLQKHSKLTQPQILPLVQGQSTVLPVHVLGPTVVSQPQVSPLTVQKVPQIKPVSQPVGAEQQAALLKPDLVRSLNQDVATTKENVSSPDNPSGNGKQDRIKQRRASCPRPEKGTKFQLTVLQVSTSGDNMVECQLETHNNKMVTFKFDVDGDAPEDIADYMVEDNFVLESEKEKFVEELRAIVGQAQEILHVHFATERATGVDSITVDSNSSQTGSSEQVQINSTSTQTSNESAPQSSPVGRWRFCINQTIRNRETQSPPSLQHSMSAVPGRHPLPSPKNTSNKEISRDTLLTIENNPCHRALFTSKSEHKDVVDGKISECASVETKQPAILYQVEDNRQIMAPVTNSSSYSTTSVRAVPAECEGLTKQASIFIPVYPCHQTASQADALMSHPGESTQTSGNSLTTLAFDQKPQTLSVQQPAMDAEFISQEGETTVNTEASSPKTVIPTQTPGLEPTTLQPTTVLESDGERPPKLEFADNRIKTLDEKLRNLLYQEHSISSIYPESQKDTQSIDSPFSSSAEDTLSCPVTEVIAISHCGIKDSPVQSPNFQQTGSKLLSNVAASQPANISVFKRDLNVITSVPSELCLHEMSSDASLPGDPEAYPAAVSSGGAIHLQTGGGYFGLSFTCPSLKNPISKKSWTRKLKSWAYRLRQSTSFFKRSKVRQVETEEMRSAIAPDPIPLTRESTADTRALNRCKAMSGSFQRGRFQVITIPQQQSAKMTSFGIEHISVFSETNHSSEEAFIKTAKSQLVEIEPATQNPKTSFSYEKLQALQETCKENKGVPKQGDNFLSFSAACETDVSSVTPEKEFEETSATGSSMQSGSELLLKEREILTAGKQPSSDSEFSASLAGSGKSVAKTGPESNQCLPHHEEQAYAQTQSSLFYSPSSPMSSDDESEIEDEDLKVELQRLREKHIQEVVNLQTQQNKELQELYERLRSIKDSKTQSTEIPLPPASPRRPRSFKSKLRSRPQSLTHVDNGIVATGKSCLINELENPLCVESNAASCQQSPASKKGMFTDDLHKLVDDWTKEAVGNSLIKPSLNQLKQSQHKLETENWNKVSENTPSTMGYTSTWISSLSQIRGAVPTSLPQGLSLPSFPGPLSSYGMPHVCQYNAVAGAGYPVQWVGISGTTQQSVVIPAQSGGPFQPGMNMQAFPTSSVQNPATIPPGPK
T8 sequence (P19784 whole entry): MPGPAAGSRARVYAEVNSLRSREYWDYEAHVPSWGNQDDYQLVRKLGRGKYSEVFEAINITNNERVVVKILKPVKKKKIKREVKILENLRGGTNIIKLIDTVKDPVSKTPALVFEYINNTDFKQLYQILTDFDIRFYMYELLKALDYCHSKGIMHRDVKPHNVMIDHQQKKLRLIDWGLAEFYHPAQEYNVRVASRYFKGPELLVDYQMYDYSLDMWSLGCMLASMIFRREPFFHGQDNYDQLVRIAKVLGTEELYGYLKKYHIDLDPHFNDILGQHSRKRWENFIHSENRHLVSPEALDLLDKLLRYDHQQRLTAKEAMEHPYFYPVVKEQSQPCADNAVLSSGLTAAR
T6 sequence (Q9Y2H1 whole entry): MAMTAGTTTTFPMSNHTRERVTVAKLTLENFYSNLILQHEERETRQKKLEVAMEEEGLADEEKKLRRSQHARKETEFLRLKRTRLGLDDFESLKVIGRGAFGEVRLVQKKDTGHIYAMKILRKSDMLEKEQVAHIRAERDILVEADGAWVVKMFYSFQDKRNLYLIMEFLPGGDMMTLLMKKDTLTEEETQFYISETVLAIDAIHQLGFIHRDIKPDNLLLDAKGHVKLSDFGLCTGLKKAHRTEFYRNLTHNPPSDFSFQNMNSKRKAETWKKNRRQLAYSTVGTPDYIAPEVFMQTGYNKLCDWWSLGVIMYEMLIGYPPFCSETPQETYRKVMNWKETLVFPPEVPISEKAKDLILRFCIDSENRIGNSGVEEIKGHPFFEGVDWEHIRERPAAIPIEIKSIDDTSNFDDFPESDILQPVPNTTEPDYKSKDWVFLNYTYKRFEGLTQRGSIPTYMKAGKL
T2 sequence (P51817 whole entry): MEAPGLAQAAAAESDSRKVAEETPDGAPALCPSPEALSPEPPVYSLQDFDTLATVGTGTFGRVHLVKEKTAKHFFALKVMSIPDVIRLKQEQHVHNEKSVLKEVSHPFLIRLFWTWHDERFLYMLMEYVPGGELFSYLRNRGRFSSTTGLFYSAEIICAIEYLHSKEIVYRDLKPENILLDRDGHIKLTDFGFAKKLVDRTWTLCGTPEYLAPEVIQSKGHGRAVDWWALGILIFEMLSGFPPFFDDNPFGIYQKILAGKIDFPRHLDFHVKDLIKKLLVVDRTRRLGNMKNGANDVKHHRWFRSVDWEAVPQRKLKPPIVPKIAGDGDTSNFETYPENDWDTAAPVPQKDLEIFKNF
T12 sequence (Q06187 whole entry): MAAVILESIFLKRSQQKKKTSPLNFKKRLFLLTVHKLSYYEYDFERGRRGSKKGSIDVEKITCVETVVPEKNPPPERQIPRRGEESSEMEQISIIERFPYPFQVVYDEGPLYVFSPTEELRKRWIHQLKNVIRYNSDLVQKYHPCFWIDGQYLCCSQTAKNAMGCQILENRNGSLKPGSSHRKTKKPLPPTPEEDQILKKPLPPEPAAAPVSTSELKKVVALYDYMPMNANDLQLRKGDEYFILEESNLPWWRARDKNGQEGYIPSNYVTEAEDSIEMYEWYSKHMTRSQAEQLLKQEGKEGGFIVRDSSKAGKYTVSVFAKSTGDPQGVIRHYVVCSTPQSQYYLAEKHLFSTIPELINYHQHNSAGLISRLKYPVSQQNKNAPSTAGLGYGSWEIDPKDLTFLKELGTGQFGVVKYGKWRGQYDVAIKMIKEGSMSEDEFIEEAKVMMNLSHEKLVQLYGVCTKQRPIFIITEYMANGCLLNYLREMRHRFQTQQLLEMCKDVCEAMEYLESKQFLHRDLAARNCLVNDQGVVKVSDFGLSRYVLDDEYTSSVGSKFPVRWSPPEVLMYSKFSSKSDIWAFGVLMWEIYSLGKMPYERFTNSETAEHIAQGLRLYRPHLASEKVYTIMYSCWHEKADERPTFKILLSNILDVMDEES
T10 sequence (P41279 whole entry): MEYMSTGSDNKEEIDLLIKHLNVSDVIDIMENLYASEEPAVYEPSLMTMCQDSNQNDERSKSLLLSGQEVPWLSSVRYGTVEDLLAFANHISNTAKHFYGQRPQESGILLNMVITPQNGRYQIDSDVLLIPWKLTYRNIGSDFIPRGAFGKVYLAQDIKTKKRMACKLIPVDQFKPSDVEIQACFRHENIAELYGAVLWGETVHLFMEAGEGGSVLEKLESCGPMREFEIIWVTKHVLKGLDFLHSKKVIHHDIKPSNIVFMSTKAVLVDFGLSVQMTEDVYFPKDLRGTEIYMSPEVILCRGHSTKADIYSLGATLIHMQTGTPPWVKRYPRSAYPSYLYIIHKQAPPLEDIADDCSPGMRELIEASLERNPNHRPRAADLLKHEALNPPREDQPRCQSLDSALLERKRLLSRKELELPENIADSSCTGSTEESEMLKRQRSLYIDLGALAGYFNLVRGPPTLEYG

remaining activity at 0.005 µM [1]: 83%
remaining activity at 0.005 µM [2]: 3%
remaining activity at 0.005 µM [3]: 16%
remaining activity at 0.005 µM [4]: 84%
remaining activity at 0.005 µM [5]: 83%
remaining activity at 0.005 µM [6]: 29%
remaining activity at 0.005 µM [8]: 69%
remaining activity at 0.005 µM [9]: 78%
remaining activity at 0.005 µM [10]: 82%
remaining activity at 0.005 µM [11]: 86%
remaining activity at 0.005 µM [13]: 68%
% enzymatic activity relative to DMSO controls [14]: 83%
% enzymatic activity relative to DMSO controls [15]: 22%
remaining activity at 0.005 µM [16]: 86%
SMILES: NCC1CCN(c2nc(-c3ccncc3)nc3c(C#CCO)cccc23)CC1 [VT02956]
YAP phosphorylation ([7]; Conc. 0.00457247 (µM)): 88.3714 and 102.283
YAP phosphorylation ([7]; Conc. 0.0137174 (µM)): 105.168 and 111.221
YAP phosphorylation ([7]; Conc. 0.0411523 (µM)): 96.441 and 81.638
YAP phosphorylation ([7]; Conc. 0.123457 (µM)): 73.179 and 42.0107
YAP phosphorylation ([7]; Conc. 0.37037 (µM)): 20.9423 and 23.4127
YAP phosphorylation ([7]; Conc. 1.11111 (µM)): 9.018 and 5.767
IC50 ([7]; HEK293-A, 2 h, HEK293A cells, 120 min, read-out: YAP phosphorylation IC50): 160 nM
YAP/TAZ dephosphorylation and ERα reduction (immunoblot) [12]: dose-dependently induces YAP/TAZ dephosphorylation and ERα reduction
